From patent US20230172204A1 (BASF SE, priority 2020, published 2023) come the findings set out here.

For test [1], the system named is Phakopsora pachyrhizi (F129L). As to the kind of experiment: Protective control of soybean rust on soybeans (PHAKPA P6). The settings on record: for % PHAKPA (F129L) Disease level P6 at 4 ppm: protective P6, 4 ppm; for % PHAKPA (F129L) Disease level P6 at 4 ppm / % PHAKPA (F129L) Disease level P6 at 16 ppm: soybean rust F129L; for % PHAKPA (F129L) Disease level P6 at 16 ppm: protective P6, 16 ppm; for PHAKPA (F129L) Disease level (%) P6 at 4 ppm / PHAKPA (F129L) Disease level (%) P6 at 16 ppm: P6 protective, % diseased leaf area. The test is classed as in vivo.

In test [2] the test system is Phakopsora pachyrhizi (F129L). The test can be described thus: Protective control of soybean rust on soybeans (PHAKPA P2). The note with it: for % PHAKPA (F129L) Disease level P2 at 4 ppm: protective P2, 4 ppm; for % PHAKPA (F129L) Disease level P2 at 4 ppm / % PHAKPA (F129L) Disease level P2 at 16 ppm: soybean rust F129L; for % PHAKPA (F129L) Disease level P2 at 16 ppm: protective P2, 16 ppm; for PHAKPA (F129L) Disease level (%) P2 at 4 ppm / PHAKPA (F129L) Disease level (%) P2 at 16 ppm: P2 protective, % diseased leaf area. The class given is in vivo.

In the case of `CNC(=O)/C(=N/OC)c1cccc(C)c1CO/N=C(\COC)c1ccccc1` [compound 295], in test [1], the “% PHAKPA (F129L) Disease level P6 at 4 ppm” value was determined as 11% and the “% PHAKPA (F129L) Disease level P6 at 16 ppm” value turned out to be 0%. Also, in test [2], the “% PHAKPA (F129L) Disease level P2 at 4 ppm” value amounted to 2% and the “% PHAKPA (F129L) Disease level P2 at 16 ppm” value is 0%.
For `CNC(=O)/C(=N/OC)c1cccc(C)c1CO/N=C(\C)c1c(F)cccc1OC(F)(F)F` [compound 325], in test [1], the “% PHAKPA (F129L) Disease level P6 at 4 ppm” value is given as 22% and the “% PHAKPA (F129L) Disease level P6 at 16 ppm” value was found to be 1%. Also, in test [2], the “% PHAKPA (F129L) Disease level P2 at 4 ppm” value turned out to be 24% and the “% PHAKPA (F129L) Disease level P2 at 16 ppm” value came out at 4%.
In the same order, the values of `CNC(=O)/C(=N/OC)c1cccc(C)c1CO/N=C(\C)c1ccccc1CC(F)(F)F` [compound 223] are 28%, 0%, 4% and 0%.
The like results for `CNC(=O)/C(=N/OC)c1cccc(C)c1CO/N=C(\C)c1cc(F)c(F)cc1CC(F)(F)F` [compound 406] were, in that order, 67%, 23%, 97% and 30%.
Take `CNC(=O)/C(=N/OC)c1cccc(C)c1CO/N=C(\C)c1cc(C)cc(Cl)c1` [compound 106]: in test [1], the “% PHAKPA (F129L) Disease level P6 at 4 ppm” value amounted to 32% and the “% PHAKPA (F129L) Disease level P6 at 16 ppm” value stood at 9%. Besides, in test [2], the “% PHAKPA (F129L) Disease level P2 at 4 ppm” value is recorded as 5% and the “% PHAKPA (F129L) Disease level P2 at 16 ppm” value was 1%.
In the same order, the values of `CO/N=C(/C(=O)OC)c1cccc(C)c1CO/N=C(/c1cccc(C(F)(F)F)c1)C(C)C` [compound 206] are 100%, 90%, 100% and 67%.
On to `CO/N=C(/C(=O)OC)c1cccc(C)c1CO/N=C(\C)c1cccc(OC(F)F)c1` [compound 80], for which, in test [1], the “% PHAKPA (F129L) Disease level P6 at 4 ppm” value came out at 30% and the “% PHAKPA (F129L) Disease level P6 at 16 ppm” value came out at 3%. In test [2], the “% PHAKPA (F129L) Disease level P2 at 4 ppm” value came to 50% and the “% PHAKPA (F129L) Disease level P2 at 16 ppm” value was 10%.
On to `CO/C=C(/C(=O)OC)c1cccc(C)c1CO/N=C(\C)c1ccccc1CC(F)(F)F` [compound 437], for which, in test [1], the “% PHAKPA (F129L) Disease level P6 at 4 ppm” value is 8% and the “% PHAKPA (F129L) Disease level P6 at 16 ppm” value is reported as 0%. Further, in test [2], the “% PHAKPA (F129L) Disease level P2 at 4 ppm” value came to 2% and the “% PHAKPA (F129L) Disease level P2 at 16 ppm” value stood at 0%.
With `CNC(=O)/C(=N/OC)c1ccccc1CO/N=C(\C)c1cc(Cl)ccc1Cl` [reference compound], the “PHAKPA (F129L) Disease level (%) P6 at 4 ppm” value in test [1] is 97%. For the same compound, the “PHAKPA (F129L) Disease level (%) P2 at 4 ppm” value (“PHAKPA … (%) P2 at 4 ppm” for short) in test [2] amounted to 87%.
`CNC(=O)/C(=N/OC)c1cccc(C)c1CO/N=C(\C)c1cccc(C(F)F)c1` [Ex. 12]: in test [1], the “PHAKPA (F129L) Disease level (%) P6 at 16 ppm” value (“PHAKPA … (%) P6 at 16 ppm” for short) was determined as 9%, the “% PHAKPA (F129L) Disease level P6 at 4 ppm” value came to 37% and the “% PHAKPA (F129L) Disease level P6 at 16 ppm” value was 9%. In addition, in test [2], the “PHAKPA (F129L) Disease level (%) P2 at 16 ppm” value (“PHAKPA … (%) P2 at 16 ppm” for short) is given as 3%, the “% PHAKPA (F129L) Disease level P2 at 4 ppm” value is 25% and the “% PHAKPA (F129L) Disease level P2 at 16 ppm” value turned out to be 1%.
With `CO/N=C(/C(=O)OC)c1cccc(C)c1CO/N=C(\C)c1ccc(F)cc1` [compound 103], in test [1], the “% PHAKPA (F129L) Disease level P6 at 4 ppm” value is reported as 35% and the “% PHAKPA (F129L) Disease level P6 at 16 ppm” value turned out to be 4%. Further, in test [2], the “% PHAKPA (F129L) Disease level P2 at 4 ppm” value was 40% and the “% PHAKPA (F129L) Disease level P2 at 16 ppm” value was determined as 3%.
In the same order, the values of `CO/N=C(/C(=O)OC)c1cccc(C)c1CO/N=C(\C)c1ccc(Cl)c(Cl)c1` [compound 40] are 63%, 22%, 40% and 18%.
For the compound `C#Cc1cc(/C(C)=N/OCc2c(C)cccc2/C(=N\OC)C(=O)NC)cc(C(F)(F)F)c1` [compound 148], in test [1], the “% PHAKPA (F129L) Disease level P6 at 4 ppm” value is 13% and the “% PHAKPA (F129L) Disease level P6 at 16 ppm” value is recorded as 7%. Also, in test [2], the “% PHAKPA (F129L) Disease level P2 at 4 ppm” value amounted to 9% and the “% PHAKPA (F129L) Disease level P2 at 16 ppm” value is 2%.
Consider `CO/N=C(/C(=O)OC)c1cccc(C)c1CO/N=C(\C)c1c(F)ccc(C(F)(F)F)c1F` [compound 156], for which, in test [1], the “% PHAKPA (F129L) Disease level P6 at 4 ppm” value is recorded as 47% and the “% PHAKPA (F129L) Disease level P6 at 16 ppm” value is 3%. Also, in test [2], the “% PHAKPA (F129L) Disease level P2 at 4 ppm” value is reported as 27% and the “% PHAKPA (F129L) Disease level P2 at 16 ppm” value worked out at 0%.
As to `CO/N=C(/C(=O)OC)c1cccc(C)c1CO/N=C(\C)c1ccccc1F` [Ex. 1, Methyl (2E)-2-[2-[[(E)-3-(2-fluorophenyl)ethylideneamino]oxymethyl]-3-methyl-phenyl]-2-methoxyimino-acetate], in test [1], the “PHAKPA … (%) P6 at 16 ppm” value amounted to 47%, the “% PHAKPA (F129L) Disease level P6 at 4 ppm” value came out at 90% and the “% PHAKPA (F129L) Disease level P6 at 16 ppm” value amounted to 56%. In test [2], the “PHAKPA … (%) P2 at 16 ppm” value was found to be 28%, the “% PHAKPA (F129L) Disease level P2 at 4 ppm” value was 80% and the “% PHAKPA (F129L) Disease level P2 at 16 ppm” value is recorded as 27%.
As for `CNC(=O)/C(=N/OC)c1cccc(C)c1CO/N=C(\C)c1ccc(C)c(C(F)(F)F)c1` [compound 230], in test [1], the “% PHAKPA (F129L) Disease level P6 at 4 ppm” value came to 73% and the “% PHAKPA (F129L) Disease level P6 at 16 ppm” value was 4%. For the same compound, in test [2], the “% PHAKPA (F129L) Disease level P2 at 4 ppm” value worked out at 22% and the “% PHAKPA (F129L) Disease level P2 at 16 ppm” value is given as 1%.
The like results for `CO/N=C(/C(=O)OC)c1cccc(C)c1CO/N=C(\C)c1cc(Cl)cc(Cl)c1F` [compound 110] were, in that order, 30%, 1%, 20% and 3%.
The like results for `CO/N=C(/C(=O)OC)c1cccc(C)c1CO/N=C(\C)c1ccc(-c2ccc(F)cc2)cc1C(F)(F)F` [compound 425] were, in that order, 53%, 40%, 27% and 28%.
On to `CNC(=O)/C(=N/OC)c1cccc(C)c1CO/N=C(\C)c1cc(C(F)(F)F)ccc1C` [compound 273], for which, in test [2], the “% PHAKPA (F129L) Disease level P2 at 4 ppm” value is listed as 60% and the “% PHAKPA (F129L) Disease level P2 at 16 ppm” value worked out at 3%.
As for `CO/N=C(/C(=O)OC)c1cccc(C)c1CO/N=C(\C)c1ccc(C(F)(F)F)cc1` [Ex. 37], in test [1], the “PHAKPA … (%) P6 at 16 ppm” value is 0%, the “% PHAKPA (F129L) Disease level P6 at 4 ppm” value was determined as 40% and the “% PHAKPA (F129L) Disease level P6 at 16 ppm” value is listed as 2%. In test [2], the “PHAKPA … (%) P2 at 16 ppm” value came out at 0%, the “% PHAKPA (F129L) Disease level P2 at 4 ppm” value came out at 40% and the “% PHAKPA (F129L) Disease level P2 at 16 ppm” value came out at 3%.
With `CNC(=O)/C(=N/OC)c1cccc(C)c1CO/N=C(\C)c1ccc(C)cc1C(F)(F)F` [compound 327], in test [1], the “% PHAKPA (F129L) Disease level P6 at 4 ppm” value is on record as 48% and the “% PHAKPA (F129L) Disease level P6 at 16 ppm” value worked out at 4%. Moreover, in test [2], the “% PHAKPA (F129L) Disease level P2 at 4 ppm” value came to 23% and the “% PHAKPA (F129L) Disease level P2 at 16 ppm” value is listed as 3%.
In the case of `CNC(=O)/C(=N/OC)c1ccccc1CO/N=C(\C)c1ccc(Cl)cc1` [reference compound], the “PHAKPA (F129L) Disease level (%) P6 at 4 ppm” value in test [1] was 80%. Moreover, the “PHAKPA … (%) P2 at 4 ppm” value in test [2] was found to be 40%.
For the compound `CNC(=O)/C(=N/OC)c1cccc(C)c1CO/N=C(\C)c1ccc(Cc2ccccc2)cc1C(F)(F)F` [compound 407], in test [1], the “% PHAKPA (F129L) Disease level P6 at 4 ppm” value came out at 17% and the “% PHAKPA (F129L) Disease level P6 at 16 ppm” value was found to be 4%. In addition, in test [2], the “% PHAKPA (F129L) Disease level P2 at 4 ppm” value is given as 12% and the “% PHAKPA (F129L) Disease level P2 at 16 ppm” value amounted to 6%.
On to `CO/N=C(/C(=O)OC)c1cccc(C)c1CO/N=C(\OC)c1cccc(C(F)(F)F)c1` [drawing 977, reference compound], for which the “PHAKPA … (%) P6 at 16 ppm” value in test [1] was determined as 23%.
Still for that read-out and setting: under `CNC(=O)/C(=N/OC)c1cccc(C)c1CO/N=C(\OC)c1cccc(C)c1` [drawing 974, reference compound] stands 45%.
Consider `CCOc1ccccc1/C(C)=N/OCc1c(C)cccc1/C(=N\OC)C(=O)NC` [compound 312], for which, in test [2], the “% PHAKPA (F129L) Disease level P2 at 4 ppm” value was determined as 100% and the “% PHAKPA (F129L) Disease level P2 at 16 ppm” value was 53%.
The like results for `CNC(=O)/C(=N/OC)c1cccc(C)c1CO/N=C(\C)c1ccccc1Oc1ccccc1` [compound 321] were, in that order, 100% and 40%.
The like results for `CNC(=O)/C(=N/OC)c1cccc(C)c1CO/N=C(\C)c1ccccc1OC(C)C` [compound 315] were, in that order, 100% and 60%.
The like results for `CNC(=O)/C(=N/OC)c1cccc(C)c1CO/N=C(\C)c1cc(C(F)(F)F)ccc1C(F)(F)F` [compound 272] were, in that order, 60% and 8%.
Consider `CO/N=C(/C(=O)OC)c1cccc(C)c1CO/N=C(\C)c1ccc(CC2COC2)cc1` [compound 82], for which, in test [2], the “% PHAKPA (F129L) Disease level P2 at 4 ppm” value is listed as 87% and the “% PHAKPA (F129L) Disease level P2 at 16 ppm” value is on record as 57%.
For the compound `CO/N=C(/C(=O)OC)c1cccc(C)c1CO/N=C(\C)c1cccc(OC(F)(F)F)c1` [drawing 936, reference compound], in test [2], the “PHAKPA … (%) P2 at 4 ppm” value was found to be 17%.
Regarding `CNC(=O)/C(=N/OC)c1cccc(C)c1CO/N=C(\C)c1ccc(OC(F)(F)F)cc1Cl` [compound 271], in test [2], the “% PHAKPA (F129L) Disease level P2 at 4 ppm” value came to 5% and the “% PHAKPA (F129L) Disease level P2 at 16 ppm” value is listed as 1%.
Consider `CNC(=O)/C(=N/OC)c1cccc(C)c1CO/N=C(\C)c1ccccc1OCOC` [compound 314], for which, in test [2], the “% PHAKPA (F129L) Disease level P2 at 4 ppm” value was determined as 100% and the “% PHAKPA (F129L) Disease level P2 at 16 ppm” value is 40%.
The like results for `CNC(=O)/C(=N/OC)c1cccc(C)c1CO/N=C(\C)c1ccc(CC2COC2)cc1` [compound 83] were, in that order, 97% and 73%.
